Calls of active or inactive are those of the source.
Key:
[1] = target: SWI/SNF-related matrix-associated actin-dependent regulator of chromatin subfamily A member 2 (Homo sapiens, UniProt P51531); assay: Luminescence-based cell-based high throughput dose response assay to identify activators of the function of SWI/SNF related, matrix associated, actin dependent regulator of chromatin, subfamily a, member 2 (SMARCA2, BRM).; format: functional
[2] = Counterscreen for activators of the function of SWI/SNF related, matrix associated, actin dependent regulator of chromatin, subfamily a, member 2 (SMARCA2, BRM): Luminescence-based cell-based high throughput dose response assay to identify non-selective compounds using the VP16 reporter assay.; format: functional
[3] = target: T1, Trace amine-associated receptor 1 (Homo sapiens, UniProt Q96RJ0); assay: Counterscreen for agonists of the human trace amine associated receptor 1 (hTAAR1): Fluorescence-based cell-based high throughput dose response assay to identify hTAAR1 agonist that also desensitize TAAR1 receptor response.; format: functional
T1 sequence (Q96RJ0 whole entry): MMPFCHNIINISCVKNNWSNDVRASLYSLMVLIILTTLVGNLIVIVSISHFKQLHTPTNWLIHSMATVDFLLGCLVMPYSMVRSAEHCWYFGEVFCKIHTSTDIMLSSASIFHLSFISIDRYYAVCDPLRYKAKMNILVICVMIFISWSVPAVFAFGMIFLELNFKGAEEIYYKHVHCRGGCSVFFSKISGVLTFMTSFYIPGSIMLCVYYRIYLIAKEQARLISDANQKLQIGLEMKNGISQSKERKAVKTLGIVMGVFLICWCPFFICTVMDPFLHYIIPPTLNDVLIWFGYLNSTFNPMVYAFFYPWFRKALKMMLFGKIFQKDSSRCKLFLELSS

cells [4] = format: functional, cell-based
[5] = target: T1, Trace amine-associated receptor 1; assay: Fluorescence-based cell-based high throughput dose response assay to identify agonists of the human trace amine associated receptor 1 (TAAR1).; format: functional
cells [6] = format: functional, cell-based; remark: listed apart in the source
[7] = HEK293T cytotoxicity, dose response, cytotoxicity control for miR-122 modulator project, cell-based, activator set, cherry-pick (AID 720690); format: functional;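 further: HEK293T human cells scored for general mammalian cytotoxicity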
Paired box protein Pax-8 = Paired box protein Pax-8 (Homo sapiens, UniProt Q06710); assay: inhibitors of PAX8-driven TPO luciferase reporter, dose response, RMG-I cells, cherry-pick (AID 687027); format: functional, cell-based;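 further: luciferase reporter driven by Pax8 target thyroperoxidase promoter measured by SteadyGlo luminescence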
Paired box protein Pax-8, sequence (Q06710 whole entry): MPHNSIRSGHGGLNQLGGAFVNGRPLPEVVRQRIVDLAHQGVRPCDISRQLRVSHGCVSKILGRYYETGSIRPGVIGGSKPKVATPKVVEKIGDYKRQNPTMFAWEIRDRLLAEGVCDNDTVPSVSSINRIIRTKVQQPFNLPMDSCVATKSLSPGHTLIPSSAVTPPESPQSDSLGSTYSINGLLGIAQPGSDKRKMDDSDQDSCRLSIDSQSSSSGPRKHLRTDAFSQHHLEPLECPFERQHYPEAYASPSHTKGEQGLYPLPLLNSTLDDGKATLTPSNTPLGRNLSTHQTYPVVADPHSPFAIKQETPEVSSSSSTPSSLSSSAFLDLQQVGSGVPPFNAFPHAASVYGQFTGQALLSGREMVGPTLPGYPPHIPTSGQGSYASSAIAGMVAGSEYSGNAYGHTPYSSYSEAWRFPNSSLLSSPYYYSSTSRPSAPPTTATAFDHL

[8] = NIH:OVCAR-3 ovarian cancer cell cytotoxicity, dose response, PAX8 inhibitor project, plate reader, dry powder samples (AID 743044); format: functional, cell-based
[9] = miR-122 activators in hepatoma reporter cells, dose response, cell-based, Huh7 psiCHECK-miR122, Renilla luciferase, cherry-picked (AID 651956); format: functional;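 further: huh7 hepatoma cells stably carrying a psiCHECK-2 miR-122 sensor plasmid; renilla luciferase signal reporting endogenous miR-122 activity after 48 h compound exposure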
[10] = HEK293T cytotoxicity, dose response, cytotoxicity control for miR-122 modulator project, cell-based, inhibitor set, cherry-pick, set 2 (AID 720697); format: functional
[11] = target: T1, Trace amine-associated receptor 1; assay: Counterscreen for antagonists of the human trace amine associated receptor 1 (hTAAR1): Fluorescence-based cell-based high throughput dose response assay to identify TAAR1 Agonists.; format: functional
[12] = Counterscreen for […] of the human trace amine associated receptor 1 (TAAR1): Fluorescence-based cell-based high throughput dose response assay to identify nonselective Ga16 agonists.; format: functional
[13] = target: T1, Trace amine-associated receptor 1; assay: Fluorescence-based cell-based high throughput dose response assay to identify antagonists of the human trace amine associated receptor 1 (TAAR1).; format: functional
[14] = Counterscreen for antagonists of the human trace amine associated receptor 1 (hTAAR1): Fluorescence-based cell-based high throughput dose response assay to identify nonselective Ga16 antagonists.; format: functional
[15] = target: 5-hydroxytryptamine receptor 2A (Mus musculus, UniProt P35363); format: functional, cell-based;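 further: CHO-K1 cells with tagged receptor and beta-arrestin; agonist potency measured as compound-induced activation of the receptor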
5-hydroxytryptamine receptor 2A, sequence (P35363 whole entry): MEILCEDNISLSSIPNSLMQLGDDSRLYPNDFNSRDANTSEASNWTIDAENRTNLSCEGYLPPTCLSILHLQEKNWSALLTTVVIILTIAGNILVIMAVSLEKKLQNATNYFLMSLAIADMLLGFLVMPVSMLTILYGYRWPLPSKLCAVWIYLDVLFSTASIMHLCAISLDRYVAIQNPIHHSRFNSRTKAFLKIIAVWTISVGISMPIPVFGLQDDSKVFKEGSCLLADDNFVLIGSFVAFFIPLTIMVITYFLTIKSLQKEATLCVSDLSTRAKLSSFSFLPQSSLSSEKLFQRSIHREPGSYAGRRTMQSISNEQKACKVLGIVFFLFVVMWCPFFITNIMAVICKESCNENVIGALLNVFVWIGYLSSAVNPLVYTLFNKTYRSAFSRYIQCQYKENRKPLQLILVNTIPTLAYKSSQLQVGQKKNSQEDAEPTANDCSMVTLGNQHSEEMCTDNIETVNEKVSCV

Mu-type opioid receptor = Mu-type opioid receptor (Homo sapiens, UniProt P35372); format: functional, cell-based;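 further: U2OS cells with beta-arrestin recruitment to OPRM1 by beta-gal complementation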
Mu-type opioid receptor, sequence (P35372 whole entry): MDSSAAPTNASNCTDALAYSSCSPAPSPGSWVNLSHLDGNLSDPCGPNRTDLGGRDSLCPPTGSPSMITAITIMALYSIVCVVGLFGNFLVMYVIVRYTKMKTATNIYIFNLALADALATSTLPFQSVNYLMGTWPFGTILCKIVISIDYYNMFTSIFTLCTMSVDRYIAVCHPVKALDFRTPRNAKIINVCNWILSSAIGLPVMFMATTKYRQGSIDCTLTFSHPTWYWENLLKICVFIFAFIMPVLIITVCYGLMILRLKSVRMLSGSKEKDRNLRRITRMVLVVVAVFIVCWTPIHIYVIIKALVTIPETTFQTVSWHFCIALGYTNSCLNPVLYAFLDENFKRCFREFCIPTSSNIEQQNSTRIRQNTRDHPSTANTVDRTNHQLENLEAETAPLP

[16] = target: T2, Corticotropin-releasing factor receptor 2/Corticotropin-releasing factor-binding protein (Homo sapiens, UniProt P24387+Q13324); assay: activators of CRF receptor 2 with binding protein – uHTS hits, confirmation (AID 602473); format: functional; conditions: read-out: EC50_Mean
T2 sequence (Q13324 whole entry): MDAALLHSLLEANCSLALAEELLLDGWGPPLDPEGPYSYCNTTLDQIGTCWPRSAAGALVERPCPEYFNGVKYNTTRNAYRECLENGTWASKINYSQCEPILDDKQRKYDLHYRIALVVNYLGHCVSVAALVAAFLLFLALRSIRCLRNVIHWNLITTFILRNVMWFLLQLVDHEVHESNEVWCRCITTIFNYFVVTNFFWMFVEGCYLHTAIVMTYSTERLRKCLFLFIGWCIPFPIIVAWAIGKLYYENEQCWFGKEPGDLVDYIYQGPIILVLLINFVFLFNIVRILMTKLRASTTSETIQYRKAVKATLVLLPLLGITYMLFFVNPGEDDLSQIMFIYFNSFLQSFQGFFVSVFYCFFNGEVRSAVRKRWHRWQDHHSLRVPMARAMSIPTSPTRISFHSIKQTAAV
T2 sequence (P24387 whole entry): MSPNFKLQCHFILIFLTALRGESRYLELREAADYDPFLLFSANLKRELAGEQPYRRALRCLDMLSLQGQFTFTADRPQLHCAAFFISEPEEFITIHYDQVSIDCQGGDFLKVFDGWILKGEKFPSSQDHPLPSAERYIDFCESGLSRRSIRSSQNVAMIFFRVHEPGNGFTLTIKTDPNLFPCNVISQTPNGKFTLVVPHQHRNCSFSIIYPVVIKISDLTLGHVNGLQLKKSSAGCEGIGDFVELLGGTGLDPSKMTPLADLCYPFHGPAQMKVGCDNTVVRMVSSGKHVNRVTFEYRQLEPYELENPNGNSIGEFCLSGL

Aminopeptidase N = target: T3, Aminopeptidase N (Plasmodium falciparum FcB1/Columbia, UniProt O96935); assay: P. falciparum M1AAP inhibitors, biochemical, fluorogenic H-Leu-NHMec substrate, 1536-well (AID 1445); design: species or system Plasmodium falciparum 3D7, 3D7
T3 sequence (O96935 whole entry): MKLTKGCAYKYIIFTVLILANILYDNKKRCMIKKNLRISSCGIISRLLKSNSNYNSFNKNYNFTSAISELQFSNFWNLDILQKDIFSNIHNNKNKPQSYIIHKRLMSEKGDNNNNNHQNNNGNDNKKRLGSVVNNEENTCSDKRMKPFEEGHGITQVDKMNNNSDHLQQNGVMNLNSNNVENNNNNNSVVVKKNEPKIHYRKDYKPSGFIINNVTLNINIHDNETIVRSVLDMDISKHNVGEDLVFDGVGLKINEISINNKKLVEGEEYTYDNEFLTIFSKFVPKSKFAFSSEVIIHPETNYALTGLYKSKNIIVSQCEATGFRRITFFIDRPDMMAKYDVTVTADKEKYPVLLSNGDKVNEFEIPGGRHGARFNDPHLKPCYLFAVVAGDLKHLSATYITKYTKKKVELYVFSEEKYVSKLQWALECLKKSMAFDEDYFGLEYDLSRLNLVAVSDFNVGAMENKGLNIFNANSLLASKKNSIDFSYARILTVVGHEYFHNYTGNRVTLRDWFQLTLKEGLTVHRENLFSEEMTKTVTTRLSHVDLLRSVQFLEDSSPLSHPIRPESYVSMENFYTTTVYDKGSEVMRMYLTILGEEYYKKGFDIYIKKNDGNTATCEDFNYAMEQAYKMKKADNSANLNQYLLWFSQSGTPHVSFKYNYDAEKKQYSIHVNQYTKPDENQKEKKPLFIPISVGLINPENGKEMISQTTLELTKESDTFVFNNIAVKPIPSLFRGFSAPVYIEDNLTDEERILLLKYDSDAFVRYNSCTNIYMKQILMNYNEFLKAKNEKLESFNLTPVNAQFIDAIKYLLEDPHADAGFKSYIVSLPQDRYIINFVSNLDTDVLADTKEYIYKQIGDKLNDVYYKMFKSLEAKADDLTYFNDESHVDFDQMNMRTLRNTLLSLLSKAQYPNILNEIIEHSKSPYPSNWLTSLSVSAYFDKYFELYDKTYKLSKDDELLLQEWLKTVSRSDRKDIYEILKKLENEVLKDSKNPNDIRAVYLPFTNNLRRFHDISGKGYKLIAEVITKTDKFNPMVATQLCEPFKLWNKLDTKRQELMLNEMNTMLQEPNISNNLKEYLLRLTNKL

[17] = target: T2, Corticotropin-releasing factor receptor 2/Corticotropin-releasing factor-binding protein; assay: Dose Response confirmation of uHTS hits for small molecule antagonists of the CRF-binding protein and CRF-R2 receptor complex.; format: functional; conditions: read-out: IC50_Mean
[18] = target: T4, Long-chain-fatty-acid--AMP ligase FadD28 (Mycobacterium tuberculosis, UniProt P9WQ59); assay: Fluorescence polarization aasay to screen for inhibitors that compete for the binding of FadD28 to a bisubstrate Measured in Biochemical System Using Plate Reader - 2147-01_Inhibitor_Dose_CherryPick_Activity.; format: functional, Mycobacterium tuberculosis H37Rv
T4 sequence (P9WQ59 whole entry): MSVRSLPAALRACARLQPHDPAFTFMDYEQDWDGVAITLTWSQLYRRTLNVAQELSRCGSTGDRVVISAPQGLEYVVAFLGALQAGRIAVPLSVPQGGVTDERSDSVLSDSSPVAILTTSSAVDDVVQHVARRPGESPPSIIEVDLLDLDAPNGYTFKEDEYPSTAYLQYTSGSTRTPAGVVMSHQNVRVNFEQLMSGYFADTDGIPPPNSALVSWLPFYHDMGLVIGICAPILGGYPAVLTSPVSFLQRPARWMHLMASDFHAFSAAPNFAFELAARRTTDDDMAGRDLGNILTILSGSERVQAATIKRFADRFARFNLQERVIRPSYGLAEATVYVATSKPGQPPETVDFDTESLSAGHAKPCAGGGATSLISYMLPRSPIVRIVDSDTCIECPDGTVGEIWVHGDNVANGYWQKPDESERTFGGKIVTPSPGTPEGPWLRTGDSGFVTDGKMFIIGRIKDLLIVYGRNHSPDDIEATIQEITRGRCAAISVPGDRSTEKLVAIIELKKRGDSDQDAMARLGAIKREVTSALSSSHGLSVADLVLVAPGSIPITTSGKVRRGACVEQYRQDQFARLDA

Genome polyprotein = Genome polyprotein (dengue virus type 2, UniProt P29990); assay: Dengue-2 NS5 methyltransferase inhibitors, primary screen, biochemical, confirmation dose response (AID 588689); format: functional
Genome polyprotein, sequence (P29990 2492-3391 limits assumed): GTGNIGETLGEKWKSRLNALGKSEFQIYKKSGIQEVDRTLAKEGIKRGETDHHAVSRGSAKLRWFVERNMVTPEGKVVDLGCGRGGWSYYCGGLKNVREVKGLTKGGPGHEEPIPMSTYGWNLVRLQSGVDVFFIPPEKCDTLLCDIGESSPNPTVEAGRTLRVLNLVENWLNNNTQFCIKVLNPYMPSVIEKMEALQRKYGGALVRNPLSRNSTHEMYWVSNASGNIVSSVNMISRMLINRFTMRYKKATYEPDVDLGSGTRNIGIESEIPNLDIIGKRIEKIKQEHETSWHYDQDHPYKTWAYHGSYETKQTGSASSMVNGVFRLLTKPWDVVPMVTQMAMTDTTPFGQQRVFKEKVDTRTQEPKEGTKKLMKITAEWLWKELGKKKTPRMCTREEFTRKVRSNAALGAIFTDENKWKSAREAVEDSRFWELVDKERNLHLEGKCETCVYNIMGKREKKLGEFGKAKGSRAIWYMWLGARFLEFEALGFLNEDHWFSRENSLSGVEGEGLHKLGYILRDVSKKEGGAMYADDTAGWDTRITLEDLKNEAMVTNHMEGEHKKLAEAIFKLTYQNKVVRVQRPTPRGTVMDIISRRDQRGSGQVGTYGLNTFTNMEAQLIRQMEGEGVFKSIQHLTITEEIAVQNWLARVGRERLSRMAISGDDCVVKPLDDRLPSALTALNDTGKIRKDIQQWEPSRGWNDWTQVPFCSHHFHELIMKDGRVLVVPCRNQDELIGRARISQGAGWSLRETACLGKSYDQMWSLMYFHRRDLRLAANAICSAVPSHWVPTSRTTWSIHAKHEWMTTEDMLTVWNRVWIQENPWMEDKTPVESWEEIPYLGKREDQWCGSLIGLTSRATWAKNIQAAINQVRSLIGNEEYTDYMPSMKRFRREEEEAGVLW

[19] = CRF-BP/CRF-R2 complex antagonists, dose response, cell-based, uHTS hits, 384-well (AID 651639); format: functional, Homo sapiens; conditions: read-out: IC50_Mean
[20] = target: Photoreceptor-specific nuclear receptor (Homo sapiens, UniProt Q9Y5X4); format: functional, cell-based;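 further: CHO-S cells with Gal4-NCOR and VP16-NR2E3 two-hybrid luciferase reporter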
Photoreceptor-specific nuclear receptor, sequence (Q9Y5X4 whole entry, the tested form may be a part): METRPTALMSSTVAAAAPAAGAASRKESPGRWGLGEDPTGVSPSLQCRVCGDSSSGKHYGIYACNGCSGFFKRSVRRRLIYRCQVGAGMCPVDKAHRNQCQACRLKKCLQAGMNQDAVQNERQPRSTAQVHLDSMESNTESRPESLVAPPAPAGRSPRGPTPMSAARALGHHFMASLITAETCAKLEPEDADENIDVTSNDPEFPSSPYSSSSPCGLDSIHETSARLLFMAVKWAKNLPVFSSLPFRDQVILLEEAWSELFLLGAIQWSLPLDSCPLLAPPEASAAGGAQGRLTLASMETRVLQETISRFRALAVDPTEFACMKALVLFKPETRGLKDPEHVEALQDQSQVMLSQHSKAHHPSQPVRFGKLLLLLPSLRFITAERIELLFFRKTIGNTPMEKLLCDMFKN

[21] = Luminescence Cell-Based Dose Confirmation HTS to Identify Activators of 5'UTR Stem-Loop Driven Alpha-Synuclein mRNA Translation in H4 Neuroglioblastoma Cells. [Related pubchem assays: 1829 (Project Summary), 1814 (Primary HTS)]; format: functional
[22] = Luminescence Cell-Based Dose Response HTS to Identify Activators of Luciferase Translation or Activity in H4 […] Cells. [Related pubchem assays: 1829 (Project Summary), 1814 (Primary HTS)]; format: functional
H4 = assay: Luminescence Cell-Based Dose Response HTS to Identify Activators of 5'UTR Stem-Loop Driven Prion Protein mRNA Translation in H4 Neuroglioblastoma Cells. [Related pubchem assays: 1829 (Project Summary), 1814 (Primary HTS)]; format: functional; conditions: Homo sapiens
[23] = target: Glucose-6-phosphate 1-dehydrogenase (Homo sapiens, UniProt P11413); assay: human G6PD enzyme inhibitors, dose response, selectivity assay for P. falciparum G6PD inhibitor project, biochemical, fluorescence (AID 504792); format: functional
Glucose-6-phosphate 1-dehydrogenase, sequence (P11413 whole entry): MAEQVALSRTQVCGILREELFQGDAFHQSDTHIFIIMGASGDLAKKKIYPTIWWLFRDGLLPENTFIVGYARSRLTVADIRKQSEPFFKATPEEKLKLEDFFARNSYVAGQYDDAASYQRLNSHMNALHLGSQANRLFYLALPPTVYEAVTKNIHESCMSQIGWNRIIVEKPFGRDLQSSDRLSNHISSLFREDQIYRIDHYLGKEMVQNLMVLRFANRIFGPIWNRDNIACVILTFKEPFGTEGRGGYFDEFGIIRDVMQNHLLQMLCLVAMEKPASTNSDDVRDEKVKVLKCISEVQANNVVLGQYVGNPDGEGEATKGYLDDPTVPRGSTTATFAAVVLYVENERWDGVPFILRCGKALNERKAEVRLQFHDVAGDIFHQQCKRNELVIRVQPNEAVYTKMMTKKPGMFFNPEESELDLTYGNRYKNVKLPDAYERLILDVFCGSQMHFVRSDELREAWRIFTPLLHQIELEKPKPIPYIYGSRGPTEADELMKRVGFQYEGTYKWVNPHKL

[24] = THP-1 cell cytotoxicity, dose response, cytotoxicity control for non-replicating M. tuberculosis project (AID 489025); format: functional

SWI/SNF-related matrix-associated actin-dependent regulator of chromatin subfamily A member 2, sequence (P51531 whole entry): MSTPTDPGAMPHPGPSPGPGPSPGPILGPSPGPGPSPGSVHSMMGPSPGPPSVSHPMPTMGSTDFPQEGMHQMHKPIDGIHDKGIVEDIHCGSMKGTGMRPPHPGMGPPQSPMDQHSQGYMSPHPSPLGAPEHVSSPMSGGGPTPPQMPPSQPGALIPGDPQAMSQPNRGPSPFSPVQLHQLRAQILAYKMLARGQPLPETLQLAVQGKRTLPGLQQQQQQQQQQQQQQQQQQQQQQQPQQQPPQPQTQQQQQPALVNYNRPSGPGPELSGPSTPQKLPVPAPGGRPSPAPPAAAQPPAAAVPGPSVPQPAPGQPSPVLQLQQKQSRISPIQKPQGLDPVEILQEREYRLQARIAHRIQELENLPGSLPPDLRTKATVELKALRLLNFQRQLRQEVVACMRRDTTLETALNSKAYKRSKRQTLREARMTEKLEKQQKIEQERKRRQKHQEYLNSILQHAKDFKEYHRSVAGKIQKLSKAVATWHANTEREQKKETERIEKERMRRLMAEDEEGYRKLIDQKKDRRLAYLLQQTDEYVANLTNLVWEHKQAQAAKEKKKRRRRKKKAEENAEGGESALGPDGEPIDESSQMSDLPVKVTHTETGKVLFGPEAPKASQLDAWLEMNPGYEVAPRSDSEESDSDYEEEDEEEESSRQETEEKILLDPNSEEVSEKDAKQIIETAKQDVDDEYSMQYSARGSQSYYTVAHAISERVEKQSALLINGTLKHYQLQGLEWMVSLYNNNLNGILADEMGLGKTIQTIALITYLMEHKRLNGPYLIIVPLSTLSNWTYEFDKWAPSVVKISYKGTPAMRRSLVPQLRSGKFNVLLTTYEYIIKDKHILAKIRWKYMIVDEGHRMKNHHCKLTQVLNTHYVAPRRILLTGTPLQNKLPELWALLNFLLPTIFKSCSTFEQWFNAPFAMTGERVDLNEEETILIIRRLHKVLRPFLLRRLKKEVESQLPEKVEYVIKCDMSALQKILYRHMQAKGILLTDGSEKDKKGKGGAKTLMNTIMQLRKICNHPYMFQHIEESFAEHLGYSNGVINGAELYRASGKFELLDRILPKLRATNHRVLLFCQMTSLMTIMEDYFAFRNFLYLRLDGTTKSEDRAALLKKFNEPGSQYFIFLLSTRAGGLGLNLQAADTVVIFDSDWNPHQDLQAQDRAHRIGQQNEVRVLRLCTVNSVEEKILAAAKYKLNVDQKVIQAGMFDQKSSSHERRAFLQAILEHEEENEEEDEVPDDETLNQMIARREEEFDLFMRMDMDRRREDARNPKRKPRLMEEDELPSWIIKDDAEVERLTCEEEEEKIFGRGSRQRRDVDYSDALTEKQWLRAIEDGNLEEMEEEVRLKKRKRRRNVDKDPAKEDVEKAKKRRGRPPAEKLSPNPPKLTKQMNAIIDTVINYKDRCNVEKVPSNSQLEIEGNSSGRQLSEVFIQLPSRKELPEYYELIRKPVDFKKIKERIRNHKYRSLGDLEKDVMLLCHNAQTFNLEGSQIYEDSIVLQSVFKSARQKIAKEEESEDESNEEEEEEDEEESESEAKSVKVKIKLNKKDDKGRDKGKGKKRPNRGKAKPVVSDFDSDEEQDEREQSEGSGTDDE

Structure (SMILES): O=C(COC(=O)c1nc(Cl)c(Cl)c(Cl)c1Cl)NCc1ccccc1
- EC50 [1]: > 91.1 µM (inactive)
- EC50 [2]: > 91.1 µM (inactive)

Structure (SMILES): CCOC(=O)[C@]12CCC=C1N(Cc1ccc3c(c1)OCO3)C(=O)[C@H](CC(=O)NCCc1ccccc1OC)C2
- IC50 [3]: 6.46 µM (active)
- IC50 (cells [4]): > 29.9 µM (inactive)
- EC50 [5]: 7.51 µM (active)
- EC50 (cells [6]): > 29.9 µM (inactive)

Structure (SMILES): COc1ccc(CN(C)C[C@@H]2OCCCC[C@H](C)Oc3ccc(NC(=O)Nc4ccc(C(F)(F)F)cc4)cc3C(=O)N([C@H](C)CO)C[C@@H]2C)cc1
- AC50 [7]: 14.5 µM (active)
- AC50 (Paired box protein Pax-8): 20.1 µM (active)
- AC50 [8]: 44.6 µM (active)
- AC50 [9]: 17.5 µM (active)
- AC50 [10]: 12 µM (active)

Structure (SMILES): COc1cc(NC(=O)c2cc3ccccc3o2)c(OC)cc1Cl
- EC50 [11]: > 29.9 µM (inactive)
- EC50 [12]: > 29.9 µM (inactive)
- IC50 [13]: 3.98 µM (active)
- IC50 [14]: > 29.9 µM (inactive)

Structure (SMILES): COc1ccc(-c2c(C#Cc3ccsc3)c3cc(-c4ccc(C(N)=O)cc4)ccc3n2C)cc1
- EC50 [11]: > 29.9 µM (inactive)
- EC50 [12]: > 29.9 µM (inactive)
- IC50 [13]: 0.233 µM (active)
- IC50 [14]: > 29.9 µM (inactive)

Structure (SMILES): COc1cccc(NC(=O)c2ccc(CN3CCN(c4ccccc4)CC3)cc2)c1
- EC50 [15]: 4.28 µM (active)
- EC50 (Mu-type opioid receptor): 92.5 µM (inactive)

Structure (SMILES): C=CCOc1ccc(/C=C2\SC(=S)N(C(C(=O)O)c3ccccc3)C2=O)cc1 (stereo not given)
- EC50 [16]: 33.2 µM (active)
- IC50 (Aminopeptidase N): 33.8 µM (active)
- IC50 [17]: 4.06 µM (active)
- AC50 [18]: 4.48 µM (active)
- IC50 (Genome polyprotein): 40.2 µM (active)
- IC50 [19]: 14.7 µM (active)

Structure (SMILES): CC(C)c1cc2c(c(O)c1O)[C@@]13CCCC(C)(C)C1CC2OC3=O (stereo not given in full)
- IC50 [20]: 2.59 µM (active)
- EC50 [21]: 71.2 µM (active)
- EC50 [22]: > 60 µM (not active)
- EC50 (H4): > 120 µM (not active)
- IC50 (Genome polyprotein): 84.4 µM (active)
- IC50 [23]: > 80 µM (inactive)

Structure (SMILES): COc1cc(C(=O)CCN2CCC(c3ccccc3)C2)cc(OC)c1OC (stereo not given)
- IC50 [3]: 2.35 µM (active)
- IC50 (cells [4]): > 29.9 µM (inactive)
- CC50 [24]: > 40 µM (active)
- EC50 [5]: 0.242 µM (active)
- EC50 (cells [6]): > 29.9 µM (inactive)

Structure (SMILES): COc1cccc(-c2nc(CN3CCN(C(=O)c4ccco4)CC3)c(C)o2)c1OC
- EC50 [15]: 20 µM (inactive)
- EC50 (Mu-type opioid receptor): 92.5 µM (inactive)
